Measured values reported in publication PMC2137757 (The Journal of Experimental Medicine, 1964).
Where two headings read alike, the source gives them in different places.

Tests used:
[1] = tested on: adrenal cortex; assay: Adrenal damage
[2] = Survival after a single feeding; conditions: 30 mg, animals invariably succumbed
[3] = tested on: menadione reductase (EC 1.6.5.2); assay: Induction of menadione reductase in tissues; type: in vivo, rat
[4] = tested on: adrenal cortex; conditions: cited from earlier work
[5] = tested on: adrenal cortex; assay: Induced protection of adrenal against 7,12-DMBA; type: in vivo, rat
[6] = tested on: deoxyribonucleic acid of adrenal; type: in vivo, rat; conditions: Table VII
[7] = Solubility of hydrocarbons in sesame oil; conditions: room temperature; approximately
[8] = tested on: adrenal cortex; conditions: single preliminary feeding; cited from earlier work
[9] = tested on: acid-insoluble residue (DNA) of liver; conditions: 7,12-DMBA 5 mg i.v. at -4 hours; TdRH3 at 0 hours; liver at +20 hours; Fig. 3
[10] = 7,12-DMBA oral 10 mg at -48 hrs
[11] = 7,12-DMBA oral 10 mg at -48 hrs, 7,12-DMBA 5 mg i.v. at -4 hrs

For CN(C)c1ccc(C=Cc2ccccc2)cc1 [4-dimethylaminostilbene], the Adrenal necrosis ([1]; feeding, 30 mg) was “did not induce necrosis” and the Time to death [2] was at most 5 days.

For Cc1c2ccccc2c(C)c2c1ccc1ccccc12 [7,12-DMBA, 7,12-Dimethylbenz[a]anthracene], the Adrenal hemorrhage ([1]; 5 mg given by vein) was “invariably caused adrenal hemorrhage”, the Adrenal apoplexy ([1]; Table I, 7,12-DMBA 30 mg/kg i.v., age 30 days, adrenals 72 hours later, 8 rats) was 0 and the Adrenal apoplexy ([1]; Table I, 7,12-DMBA 30 mg/kg i.v., age 35 days, 8 rats) was 6/8. The Adrenal apoplexy ([1]; Table I, 7,12-DMBA 30 mg/kg i.v., age 40 days, 8 rats) was 8/8, the Adrenal apoplexy ([1]; Table I, 7,12-DMBA 30 mg/kg i.v., age 42 days, 8 rats) was 8/8 and the Adrenal apoplexy ([1]; Table I, 7,12-DMBA 30 mg/kg i.v., age 45 days, 8 rats) was 8/8. The Adrenal apoplexy ([1]; feeding of 5 mg) was “failed to induce apoplexy”, the Hepatic menadione reductase ([3]; 7,12-DMBA 5 mg i.v. at 0 hours, lipide at 24 hours, measured at 48 hours, Fig. 5) was 269 per cent of controls and the “Time of first rise in hepatic menadione reductase” value ([3]; 7,12-DMBA 5 mg intravenous, Fig. 3) was 3 h. For the same compound, the “Time of first elevation in hepatic menadione reductase” value ([3]; 7,12-DMBA 5 mg oral, Fig. 3) was 8 h, the “Intravenous amount that itself causes adrenal necrosis” value ([4]; intravenous) was at least 2 mg and the Adrenal apoplexy ([4]; single feeding 30 mg, adult rats) was “induces adrenal apoplexy in all adult rats”. For the same compound, the Rats protected ([5]; 1 mg by intravenous injection on day -1, group of 8) was 5, the Adrenal protection ([5]; 0.5 to 1.5 mg injected intravenously as protector on day -1) was “no amount was found which induced complete protection” and the Adrenal protection ([5]; single feeding 2 mg to 10 mg, 1 day prior to 7,12-DMBA 5 mg i.v.) was “protected adrenals completely”. For the same compound, the “Tritium content of adrenal, per cent of controls” value ([6]; 7,12-DMBA 5 mg i.v. at -4 hrs) was 40 per cent, the “Tritium content of adrenal” value [6, 10] was 0.120 ~clgm and the “Tritium content of adrenal, per cent of controls” value [6, 10] was 91 per cent. The “Tritium content of adrenal” value [6, 11] was 0.064 ~clgm, the “Tritium content of adrenal, per cent of controls” value [6, 11] was 48 per cent and the “Solubility w/v in sesame oil” value [7] was about 10 per cent. For the same compound, the “Protection of adrenal from damage by a large dose of 7,12-DMBA” value [8] was “protects” and the “Incorporation of tritium into acid-insoluble residue of liver” value [9] was 56 per cent of control values.
